Source: paper PMC7712428, “Dimethoate Induces DNA Damage and Mitochondrial Dysfunction Triggering Apoptosis in Rat Bone-Marrow and Peripheral Blood Cells” (Toxics, 2020)
“And” between values parts separate entries of the source, which are not always exact repeats. Equal entries are not always repeated. Where two headings read alike, the source gives them in different places.

Tests used:
Platelets = details: 72 h treatment
peripheral blood cells = details: for Olive Tail Moment / Tail Length (µm): Mean ± SD
Description: (§1) The experimental animals—Rattus norvegicus (Wistar strain; 8–10 weeks old; 120 ± 20 gm; males only) were acquired from Indian Institute of Integrative Medicine (IIIM-CSIR) (Jammu, India), quarantined, acclimatized and sacrificed as per standard practice conforming to the University Ethical Regulations. After acclimatization, rats were divided into five groups by stratified randomization with five animals per group. […] Distilled water was used to prepare dosing solutions of test agent and injected via intraperitoneal (i.p.) injection. At 24, 48 and 72 h post-dosing, 5 rats per duration were sacrificed and necessary tissues were isolated for different cytogenetic and molecular parameters. For CA assessment, separate experimental lot was used due to colchicine treatment.
Detection of DNA strand break was performed according to protocol of Singh et al. with some modifications. Briefly, blood was collected using Retro-orbital bleeding during euthanasia. 10μL whole blood cells obtained were mixed with 75 µL of 0.5% LMPA and layered onto frosted slides which was pre-coated with NMA. After putting cover slip, slides were kept for 5–10min. After gelling, removed cover slip gently and added a layer of 90 μL of LMPA. After replacing the cover slip, slides were placed on the slide tray (ice packs) till the agarose layer hardened (5–10 min). Following this, removed the cover slip and by gently immersing the slides in lysis buffer embedded cells were lysed. Cells lysis was performed in cold conditions for a minimum of 2 h in lysing solution.
Alkaline conditions (pH > 13) were used to perform the electrophoresis. After lysis, slides were subjected in electrophoretic buffer at 4 °C for 40 min to achieve the DNA denaturation that allow the DNA unwinding and the expression of alkali labile site. Electrophoresis was then carried out at 0.74 V/cm for 40 min (300 mA; 24 volts) at 4 °C by raising or lowering buffer. Thereafter, neutralization buffer (0.4 M Tris, 10 M HCl; pH = 7.5) were employed to wash the slides. Slides were stained by 80 μL of 1× Ethidium Bromide and excess stain was removed by dipping in chilled distilled water. Slides were examined at 40× magnification under fluorescence microscope coupled with a charge coupled device camera (Olympus).

Neutrophils = test system: Neutrophils
Description: as §1
(§2) WBCs were isolated by following the protocol of Lone et al.. Blood was collected in 0.1% EDTA from retro-orbital plexus of rat, followed by incubation for 30 min. 500 µL of blood was then added to a centrifuge tube with 1 mL FACS lysing solution. The blood was incubated for 10 min and centrifuged (2000 rpm, 10 min) at 25 °C. After discarding the supernatant, pellet was washed in 1mL FACS lysing solution followed by centrifuging at 2000 rpm for 5 min. Repeated this step twice and then pellet was put in 500 µL of PBS, leaving only WBCs.
(§3) Protocol of Majeed and colleagues was employed for flow cytometric measurements of change in Ψm. […] Leukocytes were identified via forward and side scatter.

Eosinophils = test system: Eosinophils
Description: as §1, §2, §3

bone marrow cells = details: for Total Aberrations (Mean ± SD): mean percentage; for MI (Mean ± SD): mitotic index mean percentage; for Structural Aberrations Assoc: number of associations; for Structural Aberrations Brk: number of breaks; for Structural Aberrations Del: number of deletions; for Structural Aberrations Dcn: number of dicentrics; for Structural Aberrations Frag: number of fragments; for Structural Aberrations Gp: number of gaps; for Structural Aberrations Ring: number of rings
Description: as §1
Method of Preston et al. was used for preparing the metaphase chromosomes. An aqueous solution of Colchicine (4 mg/kgbw) was injected intraperitoneally 2 h prior to sacrificing the animal. Pre-warm KCL (0.075 M) solution was used to collect the bone marrow cells followed by incubation at 37 °C for 20 min, and then centrifuge at 1000 rpm for 10 min. After fixing the pellet in cold Cornoy’s fixative dropped onto clean pre-chilled glass slide in 30% ethanol and dried in air. 5% buffered Giemsa (pH 7.0) was used for staining. Chromosomal aberrations were analyzed on properly separated metaphases and finally photographed at 100× (Olympus U—PMTV microscope), using oil immersion. The metaphase cells from approximately 1000 cells per concentration per animal both in exposed and control replicates, expressed in percentage were considered for mitotic indices (MI).

CNC(=O)CSP(=S)(OC)OC [DM, 0,0- Dimethyl S-(N-methylcarbamoylmethyl) phosphorodithiote]
MMP loss (membrane potential loss) (Platelets): greater than 90%
Olive Tail Moment (peripheral blood cells; 20 mg/kgbw, 24 h): 5.65 ± 0.33 ***^,a
Tail Length (µm) (peripheral blood cells; 20 mg/kgbw, 24 h): 22.44 µm and 22.44 ± 2.07 ***^,a µm
Olive Tail Moment (peripheral blood cells; 20 mg/kgbw, 48 h): 4.01 ± 0.48 ***^,a
Tail Length (µm) (peripheral blood cells; 20 mg/kgbw, 48 h): 19.26 ± 1.00 *^,a µm
Olive Tail Moment (peripheral blood cells; 20 mg/kgbw, 72 h): 2.71 ± 0.31 *^,a
Tail Length (µm) (peripheral blood cells; 20 mg/kgbw, 72 h): 16.16 ± 1.35 *^,a µm
Tail Length (µm) (peripheral blood cells; 40 mg/kgbw, 24 h): 24.37 ± 1.66 ***^,a,b µm
Olive Tail Moment (peripheral blood cells; 40 mg/kgbw, 48 h): 5.35 ± 0.48 ***^,a,*^,b
Tail Length (µm) (peripheral blood cells; 40 mg/kgbw, 48 h): 25.07 ± 1.87 ***^,a,b µm
Olive Tail Moment (peripheral blood cells; 40 mg/kgbw, 72 h): 3.13 ± 0.28 *^,a
Tail Length (µm) (peripheral blood cells; 40 mg/kgbw, 72 h): 21.12 ± 1.45 ***^,a µm
Tail Length (µm) (peripheral blood cells; 60 mg/kgbw, 24 h): 30.09 µm and 30.09 ± 2.86 ***^,a,b µm
Olive Tail Moment (peripheral blood cells; 60 mg/kgbw, 48 h): 6.46 ± 0.64 ***^,a,b,c
Tail Length (µm) (peripheral blood cells; 60 mg/kgbw, 48 h): 27.63 ± 3.12 ***^,a,c,**^,b µm
Olive Tail Moment (peripheral blood cells; 60 mg/kgbw, 72 h): 4.84 ± 0.41 **^,a
Tail Length (µm) (peripheral blood cells; 60 mg/kgbw, 72 h): 20.37 ± 1.59 *^,a,c µm
increase of OTM vis-a-vis negative control (peripheral blood cells; single dose of 10 mg DM/kgbw, 24 h): ~5 fold
MMP loss (membrane potential loss) (Neutrophils; neutrophils, 72 h treatment): greater than 90%
maximum MMP loss (Neutrophils; neutrophils, initial exposure time): greater than 30%
MMP loss in neutrophils (Neutrophils; range over increased DM doses, initial exposure time): 2–40%
MMP loss (Eosinophils; 48 h exposure period (Figure 8)): around 30%
MMP loss (membrane potential loss) (Eosinophils; 72 h treatment): greater than 90%
Total Aberrations (Mean ± SD) (bone marrow cells; 20 mg/kgbw, 24 h): 5.66 ± 1.03 **^,a %
Total Aberrations (Mean ± SD) (bone marrow cells; 20 mg/kgbw, 48 h): 5.33 ± 1.43 **^,a %
Total Aberrations (Mean ± SD) (bone marrow cells; 20 mg/kgbw, 72 h): 2.17 ± 0.83 *^,a %
Total Aberrations (Mean ± SD) (bone marrow cells; 40 mg/kgbw, 24 h): 5.83 ± 1.69 **^,a %
Total Aberrations (Mean ± SD) (bone marrow cells; 40 mg/kgbw, 48 h): 5.16 ± 1.74 **^,a %
Total Aberrations (Mean ± SD) (bone marrow cells; 40 mg/kgbw, 72 h): 2.67 ± 0.75 *^,a %
Total Aberrations (Mean ± SD) (bone marrow cells; 60 mg/kgbw, 24 h): 7.50 ± 1.15% and 7.50 ± 1.15 **^,a,*^,b %
Total Aberrations (Mean ± SD) (bone marrow cells; 60 mg/kgbw, 48 h): 6.83 ± 1.90 **^,a %
Total Aberrations (Mean ± SD) (bone marrow cells; 60 mg/kgbw, 72 h): 3.16 ± 0.71 *^,a %
MI (Mean ± SD) (bone marrow cells; 20 mg/kgbw, 24 h): 2.19 ± 0.21 *^,a %
MI (Mean ± SD) (bone marrow cells; 20 mg/kgbw, 48 h): 2.04 ± 0.15 *^,a %
MI (Mean ± SD) (bone marrow cells; 20 mg/kgbw, 72 h): 2.07 ± 0.10 *^,a %
MI (Mean ± SD) (bone marrow cells; 40 mg/kgbw, 24 h): 2.16 ± 0.16 *^,a %
MI (Mean ± SD) (bone marrow cells; 40 mg/kgbw, 48 h): 1.98 ± 0.08 *^,a %
MI (Mean ± SD) (bone marrow cells; 40 mg/kgbw, 72 h): 2.05 ± 0.14 *^,a %
MI (Mean ± SD) (bone marrow cells; 60 mg/kgbw, 24 h): 1.92 ± 0.61 *^,a %
MI (Mean ± SD) (bone marrow cells; 60 mg/kgbw, 48 h): 1.97 ± 0.12 *^,a %
MI (Mean ± SD) (bone marrow cells; 60 mg/kgbw, 72 h): 1.95 ± 0.04 *^,a %
Structural Aberrations Assoc (bone marrow cells; 20 mg/kgbw, 24 h): 4
Structural Aberrations Assoc (bone marrow cells; 20 mg/kgbw, 48 h): 5
Structural Aberrations Assoc (bone marrow cells; 20 mg/kgbw, 72 h): 0
Structural Aberrations Assoc (bone marrow cells; 40 mg/kgbw, 24 h): 6
Structural Aberrations Assoc (bone marrow cells; 40 mg/kgbw, 48 h): 6
Structural Aberrations Assoc (bone marrow cells; 40 mg/kgbw, 72 h): 1
Structural Aberrations Assoc (bone marrow cells; 60 mg/kgbw, 24 h): 4
Structural Aberrations Assoc (bone marrow cells; 60 mg/kgbw, 48 h): 7
Structural Aberrations Assoc (bone marrow cells; 60 mg/kgbw, 72 h): 1
Structural Aberrations Brk (bone marrow cells; 20 mg/kgbw, 24 h): 2
Structural Aberrations Brk (bone marrow cells; 20 mg/kgbw, 48 h): 9
Structural Aberrations Brk (bone marrow cells; 20 mg/kgbw, 72 h): 2
Structural Aberrations Brk (bone marrow cells; 40 mg/kgbw, 24 h): 4
Structural Aberrations Brk (bone marrow cells; 40 mg/kgbw, 48 h): 3
Structural Aberrations Brk (bone marrow cells; 40 mg/kgbw, 72 h): 5
Structural Aberrations Brk (bone marrow cells; 60 mg/kgbw, 24 h): 6
Structural Aberrations Brk (bone marrow cells; 60 mg/kgbw, 48 h): 7
Structural Aberrations Brk (bone marrow cells; 60 mg/kgbw, 72 h): 8
Structural Aberrations Del (bone marrow cells; 20 mg/kgbw, 24 h): 4
Structural Aberrations Del (bone marrow cells; 20 mg/kgbw, 48 h): 5
Structural Aberrations Del (bone marrow cells; 20 mg/kgbw, 72 h): 4
Structural Aberrations Del (bone marrow cells; 40 mg/kgbw, 24 h): 4
Structural Aberrations Del (bone marrow cells; 40 mg/kgbw, 48 h): 4
Structural Aberrations Del (bone marrow cells; 40 mg/kgbw, 72 h): 2
Structural Aberrations Del (bone marrow cells; 60 mg/kgbw, 24 h): 6
Structural Aberrations Del (bone marrow cells; 60 mg/kgbw, 48 h): 5
Structural Aberrations Del (bone marrow cells; 60 mg/kgbw, 72 h): 3
Structural Aberrations Dcn (bone marrow cells; 20 mg/kgbw, 24 h): 8
Structural Aberrations Dcn (bone marrow cells; 20 mg/kgbw, 48 h): 3
Structural Aberrations Dcn (bone marrow cells; 20 mg/kgbw, 72 h): 2
Structural Aberrations Dcn (bone marrow cells; 40 mg/kgbw, 24 h): 12
Structural Aberrations Dcn (bone marrow cells; 40 mg/kgbw, 48 h): 8
Structural Aberrations Dcn (bone marrow cells; 40 mg/kgbw, 72 h): 2
Structural Aberrations Dcn (bone marrow cells; 60 mg/kgbw, 24 h): 10
Structural Aberrations Dcn (bone marrow cells; 60 mg/kgbw, 48 h): 7
Structural Aberrations Dcn (bone marrow cells; 60 mg/kgbw, 72 h): 2
Structural Aberrations Frag (bone marrow cells; 20 mg/kgbw, 24 h): 6
Structural Aberrations Frag (bone marrow cells; 20 mg/kgbw, 48 h): 12
Structural Aberrations Frag (bone marrow cells; 20 mg/kgbw, 72 h): 4
Structural Aberrations Frag (bone marrow cells; 40 mg/kgbw, 24 h): 3
Structural Aberrations Frag (bone marrow cells; 40 mg/kgbw, 48 h): 16
Structural Aberrations Frag (bone marrow cells; 40 mg/kgbw, 72 h): 5
Structural Aberrations Frag (bone marrow cells; 60 mg/kgbw, 24 h): 8
Structural Aberrations Frag (bone marrow cells; 60 mg/kgbw, 48 h): 14
Structural Aberrations Frag (bone marrow cells; 60 mg/kgbw, 72 h): 3
Structural Aberrations Gp (bone marrow cells; 20 mg/kgbw, 24 h): 8
Structural Aberrations Gp (bone marrow cells; 20 mg/kgbw, 48 h): 6
Structural Aberrations Gp (bone marrow cells; 20 mg/kgbw, 72 h): 5
Structural Aberrations Gp (bone marrow cells; 40 mg/kgbw, 24 h): 8
Structural Aberrations Gp (bone marrow cells; 40 mg/kgbw, 48 h): 7
Structural Aberrations Gp (bone marrow cells; 40 mg/kgbw, 72 h): 7
Structural Aberrations Gp (bone marrow cells; 60 mg/kgbw, 24 h): 7
Structural Aberrations Gp (bone marrow cells; 60 mg/kgbw, 48 h): 8
Structural Aberrations Gp (bone marrow cells; 60 mg/kgbw, 72 h): 6
Structural Aberrations Ring (bone marrow cells; 20 mg/kgbw, 24 h): 2
Structural Aberrations Ring (bone marrow cells; 20 mg/kgbw, 48 h): 6
Structural Aberrations Ring (bone marrow cells; 20 mg/kgbw, 72 h): 1
Structural Aberrations Ring (bone marrow cells; 40 mg/kgbw, 24 h): 6
Structural Aberrations Ring (bone marrow cells; 40 mg/kgbw, 48 h): 5
Structural Aberrations Ring (bone marrow cells; 40 mg/kgbw, 72 h): 1
Structural Aberrations Ring (bone marrow cells; 60 mg/kgbw, 24 h): 4
Structural Aberrations Ring (bone marrow cells; 60 mg/kgbw, 48 h): 9
Structural Aberrations Ring (bone marrow cells; 60 mg/kgbw, 72 h): 2
